Measurements published in ChEMBL document CHEMBL1201862, “PubChem BioAssay data set” (2004).
Active and inactive are the calls of the source. For most assays here, no stated cut-off is given here; in the data, actives have a measured EC50 and inactives only a lower limit.

Experiments:
[1] = Luminescence Cell-Based Dose Confirmation HTS to Identify Activators of 5'UTR Stem-Loop Driven Alpha-Synuclein mRNA Translation in H4 Neuroglioblastoma Cells. [Related pubchem assays: 1829 (Project Summary), 1814 (Primary HTS)]; format: functional
[2] = Luminescence Cell-Based Dose Response HTS to Identify Activators of Luciferase Translation or Activity in H4 […] Cells. [Related pubchem assays: 1829 (Project Summary), 1814 (Primary HTS)]; format: functional
H4 = experiment: Luminescence Cell-Based Dose Response HTS to Identify Activators of 5'UTR Stem-Loop Driven Prion Protein mRNA Translation in H4 Neuroglioblastoma Cells. [Related pubchem assays: 1829 (Project Summary), 1814 (Primary HTS)]; format: functional; settings: Homo sapiens
[3] = biological target: T1, Short transient receptor potential channel 4 (Mus musculus, UniProt Q9QUQ5); experiment: mouse TRPC4 channel inhibitors, dose response, cell-based, HEK293 TRPC4/mu-opioid, Fluo-4 calcium (AID 434942); format: functional;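 further: potency of inhibitors blocking the TRPC4 calcium response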
T1 sequence (Q9QUQ5 whole entry): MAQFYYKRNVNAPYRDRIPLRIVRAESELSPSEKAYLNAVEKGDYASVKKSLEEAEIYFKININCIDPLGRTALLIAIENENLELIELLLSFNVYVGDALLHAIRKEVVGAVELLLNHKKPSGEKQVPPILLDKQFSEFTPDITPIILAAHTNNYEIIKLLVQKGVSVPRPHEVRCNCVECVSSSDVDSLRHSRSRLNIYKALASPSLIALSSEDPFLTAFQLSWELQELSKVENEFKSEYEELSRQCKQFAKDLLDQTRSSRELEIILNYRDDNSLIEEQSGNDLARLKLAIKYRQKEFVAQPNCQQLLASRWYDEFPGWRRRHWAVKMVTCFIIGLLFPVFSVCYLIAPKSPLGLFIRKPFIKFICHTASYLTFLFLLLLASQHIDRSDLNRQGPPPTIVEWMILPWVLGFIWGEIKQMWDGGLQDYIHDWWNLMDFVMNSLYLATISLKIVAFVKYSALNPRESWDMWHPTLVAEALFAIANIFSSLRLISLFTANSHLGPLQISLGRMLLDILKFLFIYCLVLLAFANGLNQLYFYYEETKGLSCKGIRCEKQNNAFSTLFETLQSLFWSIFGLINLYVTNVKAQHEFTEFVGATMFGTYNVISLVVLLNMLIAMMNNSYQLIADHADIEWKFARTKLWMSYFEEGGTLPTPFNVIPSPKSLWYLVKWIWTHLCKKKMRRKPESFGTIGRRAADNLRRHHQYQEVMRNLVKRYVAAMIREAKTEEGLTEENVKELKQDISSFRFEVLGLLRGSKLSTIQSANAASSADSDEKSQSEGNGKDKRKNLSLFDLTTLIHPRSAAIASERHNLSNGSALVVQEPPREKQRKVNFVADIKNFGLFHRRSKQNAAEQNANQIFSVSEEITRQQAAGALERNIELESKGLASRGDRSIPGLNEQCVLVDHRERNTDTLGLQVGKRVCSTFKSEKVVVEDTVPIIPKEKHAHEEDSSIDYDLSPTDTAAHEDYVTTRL

[4] = biological target: T1, Short transient receptor potential channel 4; experiment: mouse TRPC4 channel activators, dose response, cell-based, HEK293 TRPC4/mu-opioid, Fluo-4 calcium (AID 434937); format: functional
HeLa = experiment: HeLa cell cytotoxicity, dose response, cytotoxicity control for MITF activator project, CellTiter-Glo luminescence, cherry-pick samples (AID 540259); format: functional, cell-based; settings: Homo sapiens
[5] = biological target: T2, Corticotropin-releasing factor receptor 2/Corticotropin-releasing factor-binding protein (Homo sapiens, UniProt P24387+Q13324); experiment: activators of CRF receptor 2 with binding protein – uHTS hits, confirmation (AID 602473); format: functional; settings: read-out: EC50_Mean
T2 sequence (Q13324 whole entry): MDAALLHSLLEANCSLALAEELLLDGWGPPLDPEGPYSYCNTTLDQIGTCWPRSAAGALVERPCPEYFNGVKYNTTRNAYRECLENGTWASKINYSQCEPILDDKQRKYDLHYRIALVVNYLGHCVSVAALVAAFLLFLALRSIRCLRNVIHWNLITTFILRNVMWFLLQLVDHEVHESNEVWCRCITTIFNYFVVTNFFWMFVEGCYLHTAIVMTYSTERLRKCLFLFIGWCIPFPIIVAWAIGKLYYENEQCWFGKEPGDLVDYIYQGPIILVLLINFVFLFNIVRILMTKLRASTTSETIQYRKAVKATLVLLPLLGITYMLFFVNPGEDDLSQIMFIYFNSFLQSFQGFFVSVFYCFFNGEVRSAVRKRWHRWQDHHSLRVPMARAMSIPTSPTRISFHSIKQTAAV
T2 sequence (P24387 whole entry): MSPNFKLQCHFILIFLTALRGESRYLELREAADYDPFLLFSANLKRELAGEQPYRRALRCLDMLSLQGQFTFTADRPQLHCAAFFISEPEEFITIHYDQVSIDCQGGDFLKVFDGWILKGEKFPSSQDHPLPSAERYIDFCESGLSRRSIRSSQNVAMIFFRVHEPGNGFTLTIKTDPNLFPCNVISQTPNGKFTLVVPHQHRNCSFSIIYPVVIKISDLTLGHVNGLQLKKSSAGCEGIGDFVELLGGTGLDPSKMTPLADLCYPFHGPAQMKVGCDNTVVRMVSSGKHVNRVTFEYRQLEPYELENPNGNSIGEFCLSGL

[6] = inhibitors of intracellular T. cruzi replication, confirmation, NIH3T3 host cells, beta-gal luminescence (AID 2044); format: functional, cell-based;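 further: intracellular parasites grown in NIH/3T3 mouse fibroblasts as host cells; luminescent beta-galactosidase reporter signal from transgenic T. cruzi replicating inside host cells; inhibitors lower the luminescence signal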
[7] = cytotoxicity toward NIH3T3 fibroblasts, dose response, counter-screen, cell-based, ATP luminescence, mouse fibroblasts (AID 2010); format: functional;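 further: cells exposed to compound for about 90 hours before reading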

COc1cccc(/C=C/C(=O)OC(C)C(=O)Nc2c(C)n(C)n(-c3ccccc3)c2=O)c1 (configuration not stated)
EC50 [1]: 10.5 µM (active)
EC50 [2]: 49.1 µM (active)
EC50 (H4): > 120 µM (not active)

Cc1cc2cc(C#N)c(NCCN=C(S)NCCCN3CCOCC3)nc2cc1C
EC50 [3]: 5.31 µM (active)

CCCCN(CCCC)C(=N)Nc1nc(C)cc(C)n1
EC50 [3]: 3.76 µM (active)

Oc1nc2cc3c(cc2cc1CN(Cc1nnnn1C1CCCC1)C1CCCC1)OCCO3
EC50 [1]: > 120 µM (not active)
EC50 [2]: > 120 µM (not active)
EC50 (H4): 59.4 µM (active)

CC(Oc1ccc(Cl)cc1Cl)c1nc(-c2ccccn2)no1 (configuration not stated)
EC50 [3]: 1.88 µM (active)

CCOc1ccc2ncc(C(=O)c3ccc(OC)cc3)c(N3CCN(CC)CC3)c2c1
EC50 [4]: 5.96 µM (active)

COc1cccc(CNC(=O)CN2C(=O)CSc3ccc(S(=O)(=O)N4CCCCC4)cc32)c1
EC50 [1]: > 120 µM (not active)
EC50 [2]: > 120 µM (not active)
EC50 (H4): > 120 µM (not active)

COc1cccc2cc(CC(=O)c3ccc(C)cc3C)c(=O)oc12
EC50 [1]: 43.3 µM (active)
EC50 [2]: 43.4 µM (active)
EC50 (H4): 11 µM (active)
AC50 (HeLa): 83.9 µM (active)

Nc1c(-c2ccc(Cl)cc2)cnn1-c1ccccc1
AC50 (HeLa): 64.2 µM (active)

O=C(NC(=S)NCc1nc2ccccc2[nH]1)c1ccccc1F
EC50 [1]: 70.7 µM (active)
EC50 [2]: 25.6 µM (active)
EC50 (H4): 9.16 µM (active)

COCCN(C(=O)COC(=O)/C=C/c1ccccc1Cl)c1c(N)n(Cc2ccccc2)c(=O)[nH]c1=O
EC50 [1]: 26.2 µM (active)
EC50 [2]: 9.52 µM (active)
EC50 (H4): > 120 µM (not active)

CNCCOc1ccc(Cl)c(Cl)c1
EC50 [4]: 0.944 µM (active)

O=C(NC1=NCCS1)C12CC3CC(C1)CC(C(=O)NC1=NCCS1)(C3)C2
EC50 [1]: > 120 µM (not active)
EC50 [2]: 13.6 µM (inconclusive)
EC50 (H4): 9.63 µM (active)

CCn1c(COc2ccccc2C)nc2ccccc21
AC50 (HeLa): 81 µM (active)
EC50 [5]: 4.28 µM (active)

CCCCNCc1cc(Cl)c(OCCC)c(OCC)c1
EC50 [3]: 2.37 µM (active)

CC(NCc1cc(Br)ccc1OCC(=O)NCc1ccccc1)c1ccccc1 (configuration not stated)
EC50 [6]: 2.53 µM (active)
EC50 [7]: > 60 µM (not active)
EC50 [3]: 1.06 µM (active)
EC50 [4]: 7.5 µM (active)

CSCCC(NS(=O)(=O)c1ccc2c(c1)c(=O)n(C)c(=O)n2C)C(=O)NC1CCN(Cc2ccccc2)CC1 (configuration not stated)
EC50 [4]: 3.76 µM (active)

CCCc1ccc(-c2cc(C(=O)NCCc3ccc(S(N)(=O)=O)cc3)c3ccccc3n2)cc1
AC50 (HeLa): 37.5 µM (active)
